Laboratory results reported in PMC10940743, “Discovery of a Novel Cellobiose Dehydrogenase from Cellulomonas palmilytica EW123 and Its Sugar Acids Production” (Journal of Microbiology and Biotechnology, 2023).

Test system: T1, CpCDH (recombinant cellobiose dehydrogenase)
T1 construct: gene cdh; signal peptide (30 residues) excluded; CYT + linker + DH domains, no CBM1; pET-28a NdeI/NotI, C-terminal His tag avoided by stop codon (N-terminal His tag implied, HisTrap); E. coli BL21(DE3); 923 residues printed; forward primer starts MVEPRH; printed 2,772 bp PCR product fits poorly with residues 31-923
Assay: spectrophotometric DCPIP reduction at […] nm, Michaelis-Menten
Assay type: biochemical, Cellulomonas palmilytica
Conditions: DCPIP as electron acceptor; 50 mM sodium acetate pH 5.0; 25°C

SMILES | Km
OC[C@H]1O[C@@H](O[C@H]2[C@H](O)[C@@H](O)C(O)O[C@@H]2CO)[C@H](O)[C@@H](O)[C@@H]1O (some centres unmarked) [Cellobiose] | 2.24 mM
OC[C@H]1O[C@@H](O[C@H]2[C@H](O)[C@@H](O)C(O)O[C@@H]2CO)[C@H](O)[C@@H](O)[C@H]1O (some centres unmarked) [Lactose] | 6.93 mM
